Toxic doses and inconclusive results are not listed. Rule for the calls: active = survival T/C of 150% or more; inactive = T/C below 125% in these data.
System: P388 leukemia ip, CD2F1 mice, survival T/C
Assay: NCI In Vivo Anticancer Drug Screen. Data for tumor model P388 Leukemia (intraperitoneal) in CD2F1 (CDF1) mice
Details: endpoint: median survival time, higher = longer survival
Outline: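 Mice carrying the transplanted tumor received test compound or vehicle. Survival was recorded in each group, and the value is the treated-group measurement divided by that of the vehicle-treated control group.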

[1] = dose: 100.0 mg/kg/injection, schedule: Q01DX001 (ip), vehicle: Klucel (hydroxypropylcellulose) (HPC)
[2] = dose: 200.0 mg/kg/injection, schedule: Q01DX001 (ip), vehicle: Klucel (hydroxypropylcellulose) (HPC)

Measured: T/C

Nc1nc(N)c2ncn(-c3ccc(Br)cc3)c2n1
inactive: dose: 50.0 mg/kg/injection, schedule: Q01DX005 (ip), vehicle: saline with Tween-80 95 % of control | dose: 100.0 mg/kg/injection, schedule: Q01DX005 (ip), vehicle: saline with Tween-80 92 % of control | dose: 200.0 mg/kg/injection, schedule: Q01DX005 (ip), vehicle: saline with Tween-80 91 % of control

CCN1CCC(C2(C(=O)OC)c3ccccc3-c3ccccc32)C1 (stereo not given)
inactive: dose: 6.25 mg/kg/injection, schedule: Q04DX003 (ip), vehicle: saline 106 % of control | dose: 12.5 mg/kg/injection, schedule: Q04DX003 (ip), vehicle: saline 108 % of control | dose: 25.0 mg/kg/injection, schedule: Q04DX003 (ip), vehicle: saline 103 % of control | dose: 100.0 mg/kg/injection, schedule: Q04DX003 (ip), vehicle: saline 104 % of control

O=C1C=C(O/C=C/C(C(F)(F)F)C(F)(F)F)C(=O)c2ccccc21
inactive: dose: 50.0 mg/kg/injection, schedule: Q01DX009 (ip), vehicle: saline with Tween-80 115 % of control | dose: 50.0 mg/kg/injection, schedule: Q04DX003 (ip), vehicle: saline with Tween-80 91 % of control | dose: 100.0 mg/kg/injection, schedule: Q04DX003 (ip), vehicle: saline with Tween-80 95 % of control

CC(C)CC(=O)N(CCC#N)c1ncc([N+](=O)[O-])s1
inactive: [1] 110 % of control | [2] 98 % of control

NC(=S)N/N=C/c1c(Br)n(-c2ccccc2)c2ccccc12
inactive: [1] 94 % of control | [2] 98 % of control | dose: 400.0 mg/kg/injection, schedule: Q01DX001 (ip), vehicle: Klucel (hydroxypropylcellulose) (HPC) 91 % of control

Source: PubChem BioAssay AID330 (DTP/NCI, 2004)
